Results as given in publication PMC4754667 (Clinical genitourinary cancer, 2013).

What was measured:
clinical = conditions: human, in vivo, Mean
Ang2 = conditions: patients with metastatic RCC under sunitinib treatment; cited from earlier work

AUC(0-t) (clinical; 3 mg/kg, Sorafenib AUC (AUC0-12)) [µg·h/mL]	Cmax (clinical; 3 mg/kg, Sorafenib Cmax) [µg/mL]	Tmax (clinical; 3 mg/kg, Sorafenib Tmax) [h]	AUC(0-t) (clinical; 10 mg/kg, Sorafenib AUC (AUC0-12)) [µg·h/mL]	Cmax (clinical; 10 mg/kg, Sorafenib Cmax) [µg/mL]	Tmax (clinical; 10 mg/kg, Sorafenib Tmax) [h]	AUC(0-t) (clinical; 3 mg/kg, Sunitinib AUC (AUC0-24)) [µg·h/mL]	Cmax (clinical; 3 mg/kg, Sunitinib Cmax) [µg/mL]	Tmax (clinical; 3 mg/kg, Sunitinib Tmax) [h]	AUC(0-t) (clinical; 10 mg/kg, Sunitinib AUC (AUC0-24)) [µg·h/mL]	Cmax (clinical; 10 mg/kg, Sunitinib Cmax) [µg/mL]	Tmax (clinical; 10 mg/kg, Sunitinib Tmax) [h]	SMILES	decrease in plasma Ang2 levels (Ang2) [%]
2.58	0.466	1.1	3.13	0.559	1	–	–	–	–	–	–	CNC(=O)c1cc(Oc2ccc(NC(=O)Nc3ccc(Cl)c(C(F)(F)F)c3)cc2)ccn1 [Sorafenib, sorafenib]	–
–	–	–	–	–	–	1.3	0.0642	8	1.25	0.0618	8.1	CCN(CC)CCNC(=O)c1c(C)[nH]c(/C=C2\C(=O)Nc3ccc(F)cc32)c1C [Sunitinib, sunitinib]	80
